≈ marks a conversion by molar mass, not a printed value.
Legend:
[1] = Hemolysis of human erythrocytes by the cyclodextrin derivative; format: cell-based; conditions: erythrocytes; 5 mmole/l, 0.4 ml of human erythrocyte suspension, pH 7.4, 30 min, 37° C.; read-out: hemolysis percentage
[2] = background; cited from earlier work
[3] = Solubility of prednisolone in water, alone or in the presence of a cyclodextrin; format: physicochemical
Protocol: 10 μmole of mono-3,6-anhydrocyclomaltoheptaose prepared in example 1 are dissolved in 1 ml of pure water (apyrogenic water for injections) and addition takes place of 5 μmole of prednisolone in the form of a 50 mmole/l concentrated solution in acetone. The acetone is eliminated under nitrogen bubbling and the solution lyophilized.
The residual solid, which contains 10 μmole of the cyclodextrin derivative and 5 μmole of prednisolone, is redissolved in the minimum of water at 25° C.

[4] = 25° C., without cyclodextrin; cited from earlier work
human erythrocytes = assay: Hemolysis of human erythrocytes by the cyclodextrin derivative; format: cell-based; conditions: 50 mmole/l
physchem = conditions: water
[5] = Solubility in water of cyclodextrins

OC[C@H]1O[C@@H]2O[C@H]3[C@H](O)[C@@H](O)[C@@H](O[C@H]4[C@H](O)[C@@H](O)[C@@H](O[C@H]5[C@H](O)[C@@H](O)[C@@H](O[C@H]6[C@H](O)[C@@H](O)[C@@H](O[C@H]7[C@H](O)[C@@H](O)[C@@H](O[C@H]8[C@H](O)[C@@H](O)[C@@H](O[C@H]1[C@H](O)[C@H]2O)O[C@@H]8CO)O[C@@H]7CO)O[C@@H]6CO)O[C@@H]5CO)O[C@@H]4CO)O[C@@H]3CO [β-cyclodextrin, cyclomaltoheptaose]
hemolysis at 0.5 h, 5000 µM [1]: 50%

COC[C@H]1O[C@@H]2O[C@H]3[C@H](O)[C@@H](OC)[C@@H](O[C@H]4[C@H](O)[C@@H](OC)[C@@H](O[C@H]5[C@H](O)[C@@H](OC)[C@@H](O[C@H]6[C@H](O)[C@@H](OC)[C@@H](O[C@H]7[C@H](O)[C@@H](OC)[C@@H](O[C@H]8[C@H](O)[C@@H](OC)[C@@H](O[C@H]1[C@H](O)[C@H]2OC)O[C@@H]8COC)O[C@@H]7COC)O[C@@H]6COC)O[C@@H]5COC)O[C@@H]4COC)O[C@@H]3COC [2,6-dimethyl-β-cyclodextrin]
solubilizing properties for hydrophobic organic compounds [2]: good properties of solubilizing hydrophobic, organic compounds

C[C@]12C=CC(=O)C=C1CC[C@@H]1[C@@H]2[C@@H](O)C[C@@]2(C)[C@H]1CC[C@]2(O)C(=O)CO [prednisolone]
solubility ([3]; 25° C., in the presence of mono-3,6-anhydrocyclomaltoheptaose at 200 mmole/l, read-out: maximum prednisolone solubility in water): 100 mM
solubility ([3]; prednisolone solubility in the presence of β-cyclodextrin, same conditions, with β-cyclodextrin): 9 mM
solubility in water of prednisolone [4]: 0.25 mg/mL

OC[C@H]1O[C@@H]2O[C@H]3[C@H](O)[C@@H](O)[C@@H](O[C@H]4[C@H](O)[C@@H](O)[C@@H](O[C@H]5[C@@H]6OC[C@H]5O[C@H](O[C@H]5[C@H](O)[C@@H](O)[C@@H](O[C@H]7[C@H](O)[C@@H](O)[C@@H](O[C@H]8[C@H](O)[C@@H](O)[C@@H](O[C@H]1[C@H](O)[C@H]2O)O[C@@H]8CO)O[C@@H]7CO)O[C@@H]5CO)[C@@H]6O)O[C@@H]4CO)O[C@@H]3CO [mono-3,6-anhydrocyclomaltoheptaose]
hemolysis at 0.5 h, 5000 µM [1]: 0%
hemolytic properties at much higher concentrations (human erythrocytes): no hemolysis detectable
solubility (physchem): 520 mg/mL (≈ 466 mM)
solubility in water relative to .chi. and γ-cyclodextrins ([5]; ratio to .chi. and γ-cyclodextrins): at least twice
solubility in water relative to the original cyclodextrin ([5]; ratio to original cyclodextrin (18 g/l), 25° C.): ~30 times
